The text below walks through data of paper PMC3480357, “Fragment-Hopping-Based Discovery of a Novel Chemical Series of Proto-Oncogene PIM-1 Kinase Inhibitors” (PLoS ONE, 2012).

The structures appear in SMILES notation. Where two headings read alike, the source gives them in different places. A value given as a limit tells only on which side of the number the result lay.

Data set [1] has as its target T1, PIM-3 (Homo sapiens, UniProt Q86V86). The experiment in a line: PIM-3 kinase ADP Hunter Plus assay. The class given is biochemical. Conditions: 100 µM ATP. How it is done: Kinase activity was measured with the commercial ADP Hunter™ Plus assay (DiscoveRx Ref. #33-016), a homogeneous assay measuring ADP accumulation, as a universal product of kinase activity. The assay was conducted following the manufacturer’s recommendations and adapting the protein and substrate concentrations for optimal conditions. The kinase assay buffer was 15 mM HEPES, pH 7.4, 20 mM NaCl, 1 mM EGTA, 0.02% Tween-20, 10 mM MgCl2 and 0.1 mg/ml BGG (bovine γ-globulin). All PIM kinase assays were performed with 100 µM PIMtide ([…]) as the peptide substrate and 100 µM ATP. The protein concentrations were 50, 350 and 500 ng/µl for PIM-1, 2 and 3, respectively. To calculate the IC50 of the ETP-compounds, serial 1∶5 dilutions were prepared and the reaction was started with the addition of ATP. The reaction was incubated for 1 h at 25°C. Reagents A and B (DiscoveRx) were sequentially added to the wells, and the plates were incubated for 30 min at 37°C. Fluorescence counts were read in a Victor instrument (Perkin Elmer) with the recommended settings (544 and 580 nm as the excitation and emission wavelengths, respectively). Values were plotted against the inhibitor concentrations and fit to a sigmoid dose–response curve using GraphPad software.

Data set [2] addresses T2, FLT3 (Homo sapiens, UniProt P36888).
T2 construct: purchased Invitrogen PV3182
T2 sequence (P36888 564-993 limits assumed): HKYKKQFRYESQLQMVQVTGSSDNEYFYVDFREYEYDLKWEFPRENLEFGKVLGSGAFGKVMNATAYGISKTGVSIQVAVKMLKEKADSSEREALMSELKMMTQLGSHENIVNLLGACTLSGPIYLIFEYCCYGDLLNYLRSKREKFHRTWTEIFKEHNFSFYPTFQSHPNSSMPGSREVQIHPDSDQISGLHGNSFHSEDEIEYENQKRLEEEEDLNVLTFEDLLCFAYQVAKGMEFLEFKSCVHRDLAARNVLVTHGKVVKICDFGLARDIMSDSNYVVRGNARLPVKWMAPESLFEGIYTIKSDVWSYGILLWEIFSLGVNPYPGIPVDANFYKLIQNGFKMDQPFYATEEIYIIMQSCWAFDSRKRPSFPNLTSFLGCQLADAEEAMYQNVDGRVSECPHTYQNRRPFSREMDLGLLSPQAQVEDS
The experiment in a line: FLT3 kinase ADP Hunter Plus assay. The class given is biochemical. Conditions: for FLT3 experimental hit classification: hit definition IC50 < 10µM. How it is done:
Kinase activity was measured with the commercial ADP Hunter™ Plus assay (DiscoveRx Ref. #33-016), a homogeneous assay measuring ADP accumulation, as a universal product of kinase activity. The assay was conducted following the manufacturer’s recommendations and adapting the protein and substrate concentrations for optimal conditions. The kinase assay buffer was 15 mM HEPES, pH 7.4, 20 mM NaCl, 1 mM EGTA, 0.02% Tween-20, 10 mM MgCl2 and 0.1 mg/ml BGG (bovine γ-globulin). All PIM kinase assays were performed with 100 µM ABLtide ([…]) from GenScript as the peptide substrate and 100 µM ATP. Protein concentration (from Invitrogen, PV3182) was 0.4 ng/µl. To calculate the IC50 of the ETP-compounds, serial 1∶3 dilutions were prepared and the reaction was started with the addition of ATP. The reaction was incubated for 1 h at 37°C. Reagents A and B (DiscoveRx) were sequentially added to the wells, and the plates were incubated for 30 min at 25°C. Fluorescence counts were read in an EnVision 2104 Multilabel Reader (Perkin Elmer) with the recommended settings (544 and 580 nm as the excitation and emission wavelengths, respectively). Values were plotted against the inhibitor concentrations and fit to a sigmoid dose–response curve using ActivityBase software.

The target in data set [3] is IKK-β (Homo sapiens, UniProt O14920). In words: ProQinase kinase panel, % inhibition at fixed concentration. The data set is classed as biochemical. Conditions: average of two data points, read-out: IKK-β percentage of inhibition. How it is done: (§1) Off-target selectivity profiling was also performed for compounds 3 and 8 against a panel of 20 kinases (Table 3). […] When taking the differences in screening concentrations into consideration, we can only make unequivocal conclusions about FLT3 (based on the IC50 determination). […] The slight improvement observed for the remainder of the screened targets was likely due to the difference in concentrations.

For data set [4], the target named is MEK1 (Homo sapiens, UniProt Q02750). Described as above. The data set is classed as biochemical. Conditions: read-out: MEK1 percentage of inhibition. How it is done: as §1
A short description of data set [5]: Metabolic stability in liver microsomes (Human). The class given is in vitro ADME. The following applies: for Met. Stab. (Human), percentage of the original compound that remained: 1 µM, liver microsomes, 15 minutes. Background: Liver microsomes are vesicles of endoplasmic reticulum, rich in cytochrome P450 enzymes.
The nature of data set [6]: Metabolic stability in liver microsomes (Mouse). The following applies: 1 µM, 15 minutes. The class given is in vitro ADME.
Data set [7] in a line: Metabolic stability in liver microsomes (Rat). The data set is classed as in vitro ADME. The following applies: 1 µM, 15 minutes.
The nature of data set [8]: PAMPA passive diffusion. The class given is in vitro ADME. Conditions: LC/MS/MS after 4 hours of incubation at 2 µM; for Papp at 4 h, 2 µM: PAMPA, read-out: PAMPA Pe. How it is done: Therefore, to obtain more detailed information on this critical point, preliminary in vitro ADME profiling was performed for molecule 3. This profiling was mainly focused on hERG activity and on pharmacokinetics parameters, such as metabolic stability and PAMPA (an in vitro model for passive diffusion).
Background: PAMPA measures passive passage across an artificial lipid membrane.

For data set [9], the target named is T1, PIM-3. Also on record: method as in PMID 21051136. The following applies: cited from earlier work.
For data set [10], the target named is FGF-R1 (Homo sapiens, UniProt P11362). Also noted: method as in PMID 21051136. Conditions: 10 µM; average of two data points; cited from earlier work.
Data set [11] has as its target PIM-2 (Homo sapiens, UniProt Q9P1W9). In words: PIM-2 kinase ADP Hunter Plus assay. The data set is classed as biochemical. Conditions: 100 µM ATP.
The target in data set [12] is FAK (Homo sapiens, UniProt Q05397). In words: ProQinase kinase panel, % inhibition at fixed concentration. The data set is classed as biochemical.
Data set [13] deals with KIT (Homo sapiens, UniProt P10721). The data set is described as above. The class given is biochemical.
The target of data set [14] is INS-R (Homo sapiens, UniProt P06213). Described as above. The data set is classed as biochemical. How it is done:
(§2) Once compounds 7 and 8 were synthesized, a pairwise comparison was performed to strictly evaluate the real impact of this fragment-hopping where imidazopyridazine is replaced by triazolopyridine.

Data set [15] has as its target JNK1 (Homo sapiens, UniProt P45983). The description is as above. The class given is biochemical. How it is done:
as §2

[16] abbreviates: ADP Hunter Plus, 100 µM ATP, read-out: FLT-3 IC50.
The mark [17] stands for this setting: hit definition % inhibition > 40, ligand at 5µM.
The mark [18] stands for this setting: compound 7 vs compound 1, 10 µM.

KIT, sequence (P10721 26-976, species assumed): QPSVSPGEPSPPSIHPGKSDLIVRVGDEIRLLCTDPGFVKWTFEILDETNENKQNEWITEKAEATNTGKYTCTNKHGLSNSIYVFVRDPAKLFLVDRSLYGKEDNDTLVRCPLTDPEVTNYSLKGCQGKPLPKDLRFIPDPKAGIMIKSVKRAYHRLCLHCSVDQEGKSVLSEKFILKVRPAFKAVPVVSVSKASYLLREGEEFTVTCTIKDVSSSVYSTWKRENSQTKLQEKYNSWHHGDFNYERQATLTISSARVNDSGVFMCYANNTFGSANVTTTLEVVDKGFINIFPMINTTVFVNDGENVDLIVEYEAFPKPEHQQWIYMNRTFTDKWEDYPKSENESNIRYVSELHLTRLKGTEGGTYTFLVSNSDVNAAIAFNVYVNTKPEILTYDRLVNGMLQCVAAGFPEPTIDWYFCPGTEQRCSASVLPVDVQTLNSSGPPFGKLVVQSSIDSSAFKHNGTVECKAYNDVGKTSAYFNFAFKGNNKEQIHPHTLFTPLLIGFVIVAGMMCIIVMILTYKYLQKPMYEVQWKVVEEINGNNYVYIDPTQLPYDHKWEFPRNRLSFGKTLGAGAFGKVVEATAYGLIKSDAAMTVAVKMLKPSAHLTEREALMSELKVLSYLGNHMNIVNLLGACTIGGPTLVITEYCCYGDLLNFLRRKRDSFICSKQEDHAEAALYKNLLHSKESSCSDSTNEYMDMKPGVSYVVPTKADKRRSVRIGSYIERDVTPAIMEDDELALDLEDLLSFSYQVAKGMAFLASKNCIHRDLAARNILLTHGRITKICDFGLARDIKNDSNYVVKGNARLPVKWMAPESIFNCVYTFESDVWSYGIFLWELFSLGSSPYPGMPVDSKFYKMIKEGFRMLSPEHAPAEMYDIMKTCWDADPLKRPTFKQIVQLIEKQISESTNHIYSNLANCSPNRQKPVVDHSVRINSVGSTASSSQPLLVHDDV
FAK, sequence (Q05397 whole entry, species assumed): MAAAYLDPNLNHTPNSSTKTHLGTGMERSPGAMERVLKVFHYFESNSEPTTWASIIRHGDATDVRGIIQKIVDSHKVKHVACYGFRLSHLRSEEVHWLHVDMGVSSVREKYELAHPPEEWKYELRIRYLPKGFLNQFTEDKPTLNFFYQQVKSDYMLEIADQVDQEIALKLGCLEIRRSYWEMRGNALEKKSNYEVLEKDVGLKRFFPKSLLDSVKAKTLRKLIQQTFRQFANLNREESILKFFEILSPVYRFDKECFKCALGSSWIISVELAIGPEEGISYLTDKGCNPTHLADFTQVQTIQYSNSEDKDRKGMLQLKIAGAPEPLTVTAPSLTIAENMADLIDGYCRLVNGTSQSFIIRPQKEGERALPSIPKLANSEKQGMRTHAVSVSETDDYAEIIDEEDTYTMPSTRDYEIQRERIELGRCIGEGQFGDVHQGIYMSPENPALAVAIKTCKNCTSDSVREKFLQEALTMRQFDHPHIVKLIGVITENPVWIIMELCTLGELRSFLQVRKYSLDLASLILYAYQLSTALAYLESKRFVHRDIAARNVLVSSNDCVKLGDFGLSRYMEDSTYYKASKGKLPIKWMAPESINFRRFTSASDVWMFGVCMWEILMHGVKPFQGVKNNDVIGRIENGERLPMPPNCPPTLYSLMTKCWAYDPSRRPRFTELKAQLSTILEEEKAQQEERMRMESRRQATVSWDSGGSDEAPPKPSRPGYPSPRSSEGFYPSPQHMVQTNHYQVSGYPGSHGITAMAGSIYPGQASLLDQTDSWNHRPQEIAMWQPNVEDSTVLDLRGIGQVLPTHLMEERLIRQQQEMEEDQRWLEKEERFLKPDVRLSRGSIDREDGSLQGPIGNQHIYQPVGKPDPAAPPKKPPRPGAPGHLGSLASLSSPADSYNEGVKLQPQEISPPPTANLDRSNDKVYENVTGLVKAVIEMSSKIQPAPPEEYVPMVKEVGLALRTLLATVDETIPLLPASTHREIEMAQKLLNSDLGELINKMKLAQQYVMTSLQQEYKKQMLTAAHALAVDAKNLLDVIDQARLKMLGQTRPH
INS-R, sequence (P06213 980-1382 limits assumed, species assumed): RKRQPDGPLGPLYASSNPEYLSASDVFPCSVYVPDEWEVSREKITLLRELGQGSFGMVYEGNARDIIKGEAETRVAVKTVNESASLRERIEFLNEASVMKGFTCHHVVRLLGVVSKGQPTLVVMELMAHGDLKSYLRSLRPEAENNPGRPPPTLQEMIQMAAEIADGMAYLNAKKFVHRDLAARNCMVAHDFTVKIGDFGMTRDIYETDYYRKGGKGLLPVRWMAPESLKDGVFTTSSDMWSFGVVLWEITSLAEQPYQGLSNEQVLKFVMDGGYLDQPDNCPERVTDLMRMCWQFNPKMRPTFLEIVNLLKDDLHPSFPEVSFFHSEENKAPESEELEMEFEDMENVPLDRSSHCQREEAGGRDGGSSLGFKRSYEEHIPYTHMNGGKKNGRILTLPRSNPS
IKK-β, sequence (O14920 whole entry, species assumed): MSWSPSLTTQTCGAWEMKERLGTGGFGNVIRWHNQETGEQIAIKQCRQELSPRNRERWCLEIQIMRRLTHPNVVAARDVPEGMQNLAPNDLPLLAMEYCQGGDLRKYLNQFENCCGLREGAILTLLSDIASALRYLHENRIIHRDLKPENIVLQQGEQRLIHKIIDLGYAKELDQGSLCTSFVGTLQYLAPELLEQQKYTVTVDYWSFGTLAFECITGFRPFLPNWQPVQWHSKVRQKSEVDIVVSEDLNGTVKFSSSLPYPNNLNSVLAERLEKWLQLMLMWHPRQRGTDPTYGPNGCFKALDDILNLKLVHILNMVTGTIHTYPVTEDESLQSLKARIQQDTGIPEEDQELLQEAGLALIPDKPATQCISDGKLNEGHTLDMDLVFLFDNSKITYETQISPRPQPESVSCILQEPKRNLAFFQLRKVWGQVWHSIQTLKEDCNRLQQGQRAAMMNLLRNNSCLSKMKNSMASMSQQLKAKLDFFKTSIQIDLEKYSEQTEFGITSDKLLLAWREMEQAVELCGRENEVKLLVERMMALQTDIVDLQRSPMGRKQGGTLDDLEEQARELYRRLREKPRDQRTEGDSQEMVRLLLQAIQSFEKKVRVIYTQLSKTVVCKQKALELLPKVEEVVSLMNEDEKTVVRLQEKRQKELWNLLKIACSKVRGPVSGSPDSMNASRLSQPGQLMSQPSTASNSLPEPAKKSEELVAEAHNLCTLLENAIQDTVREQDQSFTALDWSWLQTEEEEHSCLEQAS
PIM-2, sequence (Q9P1W9 whole entry): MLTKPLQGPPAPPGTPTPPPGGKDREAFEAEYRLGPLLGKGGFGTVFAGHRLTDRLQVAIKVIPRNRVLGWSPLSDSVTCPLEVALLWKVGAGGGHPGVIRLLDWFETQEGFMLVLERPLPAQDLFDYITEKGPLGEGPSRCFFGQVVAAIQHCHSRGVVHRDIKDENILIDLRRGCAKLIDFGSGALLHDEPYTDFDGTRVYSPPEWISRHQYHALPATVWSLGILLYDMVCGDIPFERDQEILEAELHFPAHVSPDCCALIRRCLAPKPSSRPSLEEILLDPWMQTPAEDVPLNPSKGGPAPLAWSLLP
MEK1, sequence (Q02750 whole entry, species assumed): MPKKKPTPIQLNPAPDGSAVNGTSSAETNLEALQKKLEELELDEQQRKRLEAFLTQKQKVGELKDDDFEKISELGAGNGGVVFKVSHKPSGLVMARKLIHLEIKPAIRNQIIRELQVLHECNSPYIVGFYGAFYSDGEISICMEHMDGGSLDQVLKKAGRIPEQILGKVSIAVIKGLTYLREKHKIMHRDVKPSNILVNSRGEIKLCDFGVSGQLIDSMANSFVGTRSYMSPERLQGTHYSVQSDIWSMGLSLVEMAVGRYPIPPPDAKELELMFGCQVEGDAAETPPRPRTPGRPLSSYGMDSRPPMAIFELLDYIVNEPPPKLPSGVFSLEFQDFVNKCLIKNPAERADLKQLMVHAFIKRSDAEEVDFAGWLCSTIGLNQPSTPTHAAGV
JNK1, sequence (P45983 whole entry, species assumed): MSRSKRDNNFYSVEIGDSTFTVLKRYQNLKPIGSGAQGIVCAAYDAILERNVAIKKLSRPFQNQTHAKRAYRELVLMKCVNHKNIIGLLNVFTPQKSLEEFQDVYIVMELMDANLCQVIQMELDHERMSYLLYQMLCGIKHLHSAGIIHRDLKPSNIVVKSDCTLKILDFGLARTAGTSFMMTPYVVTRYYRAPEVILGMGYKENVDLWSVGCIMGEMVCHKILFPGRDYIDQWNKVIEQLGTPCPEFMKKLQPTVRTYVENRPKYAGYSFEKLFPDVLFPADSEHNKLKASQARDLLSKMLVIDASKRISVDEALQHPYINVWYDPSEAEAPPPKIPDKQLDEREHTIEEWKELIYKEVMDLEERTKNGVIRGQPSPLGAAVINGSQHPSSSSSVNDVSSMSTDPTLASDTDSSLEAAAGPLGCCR

Take `CN1CCC(CNc2ccc3ncc(-c4cccc(OC(F)(F)F)c4)n3n2)CC1` [Compound 3, reference compound]: the IC50 came out at 46 nM in data set [1] and 5 nM in data set [2]. In addition, the inhibition at 10 µM in data set [3] (inhibitor at 10 µM) amounted to 0%; in data set [4] it was 11%. Also, in data set [5], the “Met. Stab. (Human), percentage of the original compound that remained” value came out at 31%. In addition, in data set [6], the “Met. Stab. (Mouse), percentage of the original compound that remained” value worked out at 5%. Further, in [7], the “Met. Stab. (Rat), percentage of the original compound that remained” value amounted to 23%. The Papp at 4 h, 2 µM in data set [8] amounted to 0.0015 ×10⁻⁶ cm/s.
As to `Oc1ccc(-c2cnc3ccc(NCc4ccc(F)cc4)nn23)cc1` [Compound 1], the 50% inhibitory concentration (IC50) was 1 nM in [2] (setting [16]) and 79 nM in [9]. For the same compound, the “FGF-R1 percentage of inhibition” value in data set [10] is reported as 84%.
`CN1CCC(CNc2ccc3nnn(-c4cccc(OC(F)(F)F)c4)c3n2)CC1` [Compound 8, (1-Methyl-piperidin-4-ylmethyl)-[3-(3-trifluoromethoxy-phenyl)-3H-[1], [2], [3]triazolo[4,5-b]pyridin-5-yl]-amine]: the IC50 stood at 4950 nM in data set [11], 724 nM in data set [1] and 1320 nM in [2] (setting [16]). In addition, in data set [2], the “FLT3 experimental hit classification” value is given as “hit”. In addition, in data set [12] (setting [17]), the “FAK experimental hit classification” value is “not a FAK hit”. The inhibition at 5 µM amounted to 34% in data set [12] (inhibitor at 5 µM, average of two data points, read-out: FAK percentage of inhibition); 44% in data set [13] (inhibitor at 5 µM, average of two data points, read-out: KIT percentage of inhibition); 3% in data set [3] (inhibitor at 5 µM); 33% in data set [4] (inhibitor at 5 µM, average of two data points). For the same compound, the “KIT increment in percentage of inhibition” value in data set [13] (compound 8 (5 µM) versus compound 3 (10 µM)) is greater than 50%. In addition, the “KIT improvement in percentage of inhibition” value in data set [13] (compound 8 (5 µM) vs compound 3 (10 µM)) is listed as “c (This designation indicates that the improvement in percentage of inhibition was greater than 50%)”. In addition, the “KIT experimental hit classification” value in data set [13] (setting [17]) is reported as “hit”. Also, the “Met. Stab. (Human), percentage of the original compound that remained” value in data set [5] is on record as 77%. In data set [5] (molecule 8 vs compound 3), the “increase in metabolic stability in human liver microsomes” value is “more than 45%”. Besides, the “Met. Stab. (Mouse), percentage of the original compound that remained” value in [6] is 27%. For the same compound, in data set [7], the “Met. Stab. (Rat), percentage of the original compound that remained” value came out at 35%. For the same compound, in data set [8], the “PAMPA Pe” value is recorded as 0.74 10^-6 cm/s. For the same compound, the Papp at 4 h, 2 µM in data set [8] is roughly 1 ×10⁻⁶ cm/s.
Consider `Oc1ccc(-n2nnc3ccc(NCc4ccc(F)cc4)nc32)cc1` [Compound 7, 4-[5-(4-Fluoro-benzylamino)-[1], [2], [3]triazolo[4,5-b]pyridin-3-yl]-phenol], for which the half-inhibitory concentration (IC50) in data set [11] came out at 333 nM; in data set [1], 51 nM; in [2] (setting [16]), 1840 nM. The “FLT3 experimental hit classification” value in data set [2] is “hit”. In [14] (setting [18]), the “INS-R improvement in percentage of inhibition” value is “b (This designation indicates that the improvement in percentage of inhibition was equal or greater than 25%)”. For the same compound, the inhibition at 10 µM in data set [14] (inhibitor at 10 µM, average of two data points, read-out: INS-R percentage of inhibition) was determined as 32%; in [15] (inhibitor at 10 µM, average of two data points, read-out: JNK1 percentage of inhibition), 11%; in data set [12] (inhibitor at 10 µM, average of two data points, read-out: FAK percentage of inhibition) it was 38%; in data set [13] (inhibitor at 10 µM, average of two data points, read-out: KIT percentage of inhibition), 51%. Also, in data set [15] (setting [18]), the “JNK1 improvement in percentage of inhibition” value is reported as “c (This designation indicates that the improvement in percentage of inhibition was equal or greater than 50%)”. Further, in data set [13] (setting [18]), the “KIT improvement in percentage of inhibition” value is on record as “b (This designation indicates that the improvement in percentage of inhibition was equal or greater than 25%)”. Besides, the “KIT experimental hit classification” value in data set [13] (hit definition % inhibition > 50, ligand at 10µM) is given as “hit”.

As usually defined, the IC50 is the point on the concentration scale where inhibition reaches its midpoint. As a reminder, the inhibition is the relative decrease from the control value, in per cent.
